# Test results taken from ChEMBL document CHEMBL4680203, “Cladosins L-O, new hybrid polyketides from the endophytic fungus Cladosporium sphaerospermum WBS017” (Eur J Med Chem, 2020).
# Tests used:
# [1] = system: Saccharomyces cerevisiae; assay: Antifungal activity against Saccharomyces cerevisiae ESM356-1 assessed as diameter of zone inhibition at 100 ug by Kirby-Bauer disk diffusion method; assay type: functional, organism-based; conditions: dose 100.0 µg
# [2] = system: Ustilago maydis; assay: Antifungal activity against Ustilago maydis AB33 assessed as diameter of zone inhibition at 100 ug by Kirby-Bauer disk diffusion method; assay type: functional; conditions: Mycosarcoma maydis
# [3] = system: Pseudomonas aeruginosa; assay: Antibacterial activity against Pseudomonas aeruginosa 27853 assessed as reduction in microbial growth by CLSI based broth microdilution method; assay type: functional
# [4] = system: L5178Y; assay: Cytotoxicity against mouse L5178Y cells assessed as cell viability at 10 ug/ml after 24 hrs by MTT assay relative to control; assay type: functional; conditions: read-out: Activity
# [5] = system: Acinetobacter baumannii; assay: […] activity against Acinetobacter baumannii BAA1605 assessed as reduction in microbial growth by CLSI based broth microdilution method; assay type: functional
# [6] = system: Mycobacterium tuberculosis; assay: Antitubercular activity against Mycobacterium tuberculosis H37Rv assessed as reduction in microbial growth by CLSI based broth microdilution method; assay type: functional
# [7] = system: Staphylococcus aureus; assay: Antibacterial activity against Staphylococcus aureus ATCC 29213 assessed as reduction in microbial growth by CLSI based broth microdilution method; assay type: functional
# [8] = system: Saccharomyces cerevisiae; assay: Antifungal activity against Saccharomyces cerevisiae ESM356-1 assessed as diameter of zone inhibition at 50 ug by Kirby-Bauer disk diffusion method; assay type: functional; conditions: read-out: DIZ
# [9] = system: Ustilago maydis; assay: Antifungal activity against Ustilago maydis AB33 assessed as diameter of zone inhibition at 50 ug by Kirby-Bauer disk diffusion method; assay type: functional; conditions: Mycosarcoma maydis, read-out: DIZ
# [10] = system: Staphylococcus aureus; assay: Antibacterial activity against Staphylococcus aureus ATCC 700699 assessed as reduction in microbial growth by CLSI based broth microdilution method; assay type: functional
# [11] = system: Enterococcus faecalis; assay: […] activity against Enterococcus faecalis ATCC 29212 assessed as reduction in microbial growth by CLSI based broth microdilution method; assay type: functional
# [12] = system: L5178Y; assay: Cytotoxicity against mouse L5178Y cells assessed as reduction in cell viability after 24 hrs by MTT assay; assay type: functional, cell-based
Compound,MIC [3] [µM],viability at 10 µg/mL [4] [%],MIC [5] [µM],MIC [6] [µM],MIC [7] [µM],other results
NYSTATIN,,,,,,inhibition zone (IZ) [1]: 7.8 mm; inhibition zone (IZ) ([2]; dose 100.0 µg): 32.7 mm
CC(C)=C1NC(=O)C2=C1O[C@H](C[C@H](C)O)CC2=O,> 100,100,> 100,> 100,> 100,
CC(C)=C1NC(=O)C2=C1O[C@@H](C[C@H](C)O)CC2=O,> 100,,> 100,> 100,> 100,
CN[C@H]1C[C@@H](N)[C@H](O)[C@@H](O[C@@H]2O[C@H](CO)[C@H](O)[C@@H]3O[C@@]4(O[C@H]23)O[C@H]([C@H](N)CO)[C@H](O)[C@H](O)[C@H]4O)[C@@H]1O,,,,,,zone of inhibition at 50 µg/disc [8]: 8.7 mm; zone of inhibition at 50 µg/disc [9]: 8.3 mm
CC(C)=C1NC(=O)C(=Cc2ccc(O)cc2)C1=O (mixture of isomers),> 100,18.2,> 100,> 100,50,MIC [10]: 25 µM; MIC [11]: > 100 µM
CC(C)=C1NC(=O)C(=C(N)CC(O)C[C@@H](C)O)C1=O (some centres undefined),> 100,82.2,> 100,100,> 100,
CC(C)=C1NC(=O)C(=C(N)/C=C/CC(C)O)C1=O (centres undefined),> 100,32.8,> 100,100,> 100,
CC(C)=C1NC(=O)C(=C2C=CCC(C)O2)C1=O (centres undefined),> 100,0,> 100,> 100,> 100,EC50 [12]: 3.7 µM; zone of inhibition at 100 µg/disc ([2]; read-out: DIZ): 9.7 mm
CC(C)=C1NC(=O)C(=C(N)CC(O)C[C@H](C)O)C1=O (some centres undefined),> 100,53.1,> 100,100,> 100,
CC(C)=C1NC(=O)C(=C(N)CCCC(C)O)C1=O (mixture of isomers),> 100,50.9,> 100,100,> 100,
C/C=C1\NC(=O)[C@H](Cc2ccccc2)NC(=O)[C@H](C(C)C)NC(=O)[C@@H]([C@@H](C)CC)NC(=O)[C@@H](NC(=O)[C@H](NC(=O)[C@H](CCCN)NC(=O)[C@H]2CCCN2C(=O)[C@@H](NC(=O)C(NC(=O)[C@@H](NC(=O)[C@@H](NC(=O)CCCC(C)C)C(C)C)[C@@H](C)O)C(C)C)C(C)C)[C@@H](C)CC)[C@@H](C)OC(=O)[C@H](C(C)C)NC1=O (some centres undefined),,0,,,,EC50 [12]: 4.3 µM
